# How the values were obtained:
# blood brain barrier [1] = assay: Evans Blue dye extravasation across the blood brain barrier in mice immunized for EAE; format: in vivo, mouse; settings: WT EAE mice; 100 μl 0.01 nM on day 1, 3, 5, 7, 9; dye on day 10, brain harvested six hours later; vs PBS control EAE mice
# Description: In order to determine if activation of adenosine receptors would induce extravazation of Evans Blue dye across the blood brain barrier (BBB), mice were first treated on day one with NECA, a non-selective adenosine receptor agonist (n=2, 100 μl 0.01 nM); and, PBS as a vehicle control (n=2, 100 μl). On day 2 mice were then immunized with CFA-MOG35-55 and pertussis to induce EAE. Then NECA or PBS was administered every other day on day 3, day 5, day 7 and day 9. On day 10, mice were injected intravenously with 200 μl 1% Evans Blue dye ([…] total dye injected). Six hours after administration of Evans Blue, mice were anesthetized with a ketamine/xylazine mix and perfused via the left ventricle with ice cold PBS. Brains were harvested and homogenized in n,n-dimethylformamide (DMF) at 5 μl/mg (v:w). Tissue was incubated for 72 hours at room temperature in DMF to extract the dye. Following extraction, the tissue/solvent mixture was centrifuged at 500×g for 30 minutes and 100 μl of supernatant was read on a BioTex spectrophotometer at 620 nm.
# blood brain barrier [2] = assay: Evans Blue dye extravasation across the blood brain barrier after single i.v. treatment; format: in vivo, mouse; settings: 100 μl 0.01 nM single i.v. one hour before dye, brain harvested four hours after dye
# Description: The objective of this experiment was to determine if the blood brain barrier could be modulated by activation of adenosine receptors. NECA is a non-selective adenosine receptor agonist, with similar affinities for A1, A2a and A3 adenosine receptors and a low affinity for the A2b adenosine receptor. In order to determine if activation of adenosine receptors would induce extravasation of Evans Blue dye across the blood brain barrier (BBB), mice were treated with: NECA, a non-selective adenosine receptor agonist (n=5, 100 μl 0.01 nM); SCH58261, an A2a adenosine receptor specific antagonist (n=5, 1 mg/kg); pertussis toxin, an agent known to induce BBB leakiness and as such used as a positive control (n=7, 200 μl); and, PBS as a vehicle control (n=5, 100 μl). CD73^−/− mice, which lack the ability to produce extracellular adenosine, were also treated with NECA (n=4, 100 μl 0.01 nM). Treatments were administered as a single i.v. injection one hour prior to i.v. injection of 200 μl 1% Evans Blue dye ([…] total dye injected). Four hours after administration of Evans Blue, mice were anesthetized with a ketamine/xylazine mix and perfused via the left ventricle with ice cold PBS. […] Following extraction, the tissue/solvent mixture was centrifuged at 500×g for 30 minutes and 100 μl of supernatant was read on a BioTex spectrophotometer at 620 nm. Data is expressed as μg Evans Blue/ml DMF.
# hCMEC/D3 cells [3] = assay: Jurkat cell migration across hCMEC/D3 transwell in vitro BBB; format: cell-based, human; settings: hCMEC/D3 on Transwell; migrated cells counted after 24 hours
# Text: The blood brain barrier (BBB) is comprised of endothelial cells. During late stages of EAE, lymphocytes are known to cross the BBB. In order to determine if adenosine receptor stimulation of brain endothelial cells could promote lymphocyte migration through the BBB, an in vitro BBB was established. The human brain endothelial cell line hCMEC/D3 (Weksler et al., “Blood-brain Barrier-specific Properties of a Human Adult Brain Endothelial Cell Line,” J. Neurochem. 19(13):1872-4 (2005); Poller et al., “The Human Brain Endothelial Cell Line hCMEC/D3 as a Human Blood-brain Barrier Model for Drug Transport Studies,” J. Neurochem. 107(5):1358-1368 (2008), which are hereby incorporated by reference in their entirety) was obtained, which has been previously described as having BBB properties.
# hCMEC/D3 cells were seeded onto Transwell and allowed to grow to confluencey. 2×10^6 Jurkat cells were added to the upper chamber with or without NECA (general adenosine receptor [AR] agonist), CCPA (A1AR agonist), CGS 21680 (A2AAR agonist), or DMSO vehicle. After 24 hours, migrated cells in the lower chamber were counted. Values are relative to the number of cells that migrate through non-HCMECD3 seeded transwells.
# hCMEC/D3 cells [4] = assay: cAMP levels in hCMEC/D3 cells (cAMP Screen kit); format: cell-based, human; settings: 15 minutes treatment, various concentrations
# Description: Adenosine receptor activation regulates cAMP levels in cells. In order to determine the sensitivity of human brain endothelial cells to adenosine receptor induced cAMP regulation, human brain endothelial cells were cultured with adenosine receptor agonists at various concentrations, followed by cAMP level analysis, as shown in FIG. 13.
# HCMECD3 cells were grown to confluencey on 24 well plates. As adenosine receptor (“AR”) stimulation is known to influence cAMP levels, cells were treated with or without various concentrations of NECA (general AR agonist), CCPA (A1AR agonist), CGS 21680 (A2AAR agonist), DMSO vehicle, or Forksolin (induces cAMP). After 15 minutes, lysis buffer was added and the cells were frozen at −80 C to stop the reaction. Duplicate samples were used for each condition. cAMP levels were assayed using a cAMP Screen kit (Applied Biosystems, Foster City, Calif.).
# Z310 cells = assay: Jurkat cell migration across Z310 choroid plexus cell transwell; format: cell-based, murine; settings: Z310 cells on Transwell; migrated cells counted after 24 hours; n=1
# Description: The choroid plexus (“CP”) controls lymphocyte migration into the CNS. The CP expresses the A1 and A2a adenosine receptors. EAE is prevented in mice when A2a adenosine receptor activity is blocked. EAE is enhanced when the A1 adenosine receptor is missing. It was hypothesized that A2a adenosine receptor activation promotes lymphocyte migration across the CP. Z310 cells are a murine choroid plexus cell line. To test the hypothesis, Transwell membranes were seeded with Z310 cells and allowed to grow to confluencey. 2×10^6 Jurkat cells were added to the upper chamber with or with out NECA (n=1, general AR agonist), CCPA (n=1, A1AR agonist), CGS 21680 (n=1, A2AAR agonist), or DMSO vehicle(n=1). After 24 hours, migrated cells in the lower chamber were counted. Values are relative to the number of cells that migrate through non-Z310 seeded transwells and the results are shown in FIG. 12.
smiles,measurement,setting,value
CCNC(=O)[C@H]1O[C@@H](n2cnc3c(N)ncnc32)[C@H](O)[C@@H]1O [NECA],BBB permeability (Evans Blue dye migration into the CNS),blood brain barrier [1],increase in BBB permeability over PBS control EAE mice
same,Evans Blue dye migration across the blood brain barrier,"blood brain barrier [2]; CD73-/- mice, vs PBS control",almost five fold increase in dye migration vs. the PBS control
same,Evans Blue dye migration across the blood brain barrier,"blood brain barrier [2]; WT mice, vs control mice",increase over control mice
same,lymphocyte (Jurkat) migration across the in vitro BBB,hCMEC/D3 cells [3],induced some migration
same,cAMP levels,hCMEC/D3 cells [4],increased cAMP levels
same,lymphocyte (Jurkat) migration across the CP,Z310 cells,induced migration
